This assay concerns the target P. falciparum 3D7A growth, LDH activity. In words: parasite LDH-based blood-stage antimalarial activity – strain 3D7A, LDH readout, dose response (AID 2060598).

Some results are limits rather than exact numbers.

What is called IC50 is the concentration at which inhibition is half-maximal. As for `Cc1nn(C2CCS(=O)(=O)C2)c(C)c1CN(C)C(=O)CN1C(=O)NC2(CCCCC2C)C1=O` (stereo unspecified), the IC50 reads like this: (restricted media, 72 h) 63.1 nM; (standard media with serum) 631 nM.
On the same counts, the results for `O=C(Nc1ccc(N2CCCC2)nc1)N1CCN(c2cnccn2)CC1` are 79.4 nM and 2000 nM.
On the same counts, the results for `O=C(/C=C/c1n[nH]c2ccccc12)Nc1ccc(C(=O)NCCN2CCOCC2)cc1` are 316 nM and 3160 nM.
The corresponding values for `O=C1CSc2ccc(C(=O)Nc3ccc(-c4nnc5n4CCCCC5)cc3)cc2N1` are 501 nM and 5010 nM.
Take `Cc1ccc2nc(CCNC(=O)CCS(=O)(=O)c3ccc4c(c3)CC(=O)N4C)[nH]c2c1`: the half-maximal inhibitory concentration (IC50) (restricted media, 72 h) was 31.6 nM and the IC50 (standard media with serum) was 501 nM.
On the same counts, the results for `CN(C(=O)C[C@@H]1CCN(C(=O)C2CC2)C1)c1ccc(-c2ccc(C#N)cc2)cc1` are 251 nM and 3980 nM.
On the same counts, the results for `COc1ccc(C(=O)N2CCN(c3ccc(-n4cccn4)nn3)CC2)cc1OC` are 126 nM and 1580 nM.
On the same counts, the results for `O=C(CCCc1c[nH]c2ccccc12)N1CCN(c2ccc(N3CCOCC3)nn2)CC1` are 398 nM and 5010 nM.
In the case of `Cc1cc(Cl)ccc1OCC(=O)N1CCc2c(cnc(C)c2CNC(=O)c2ccc(=O)[nH]n2)C1`, the IC50 by setting is: (restricted media, 72 h) 20 nM; (standard media with serum) 316 nM.
The corresponding values for `O=C(c1cc2ccccc2[nH]1)N1CCC2(CC(Nc3ccncn3)C2)C1` (stereo unspecified) are 31.6 nM and 316 nM.
The corresponding values for `COc1ccc(N2CCN(C(=O)c3csc(Nc4ccccc4S(C)(=O)=O)n3)CC2)nc1` are 79.4 nM and 1000 nM.
The corresponding values for `O=C(COc1ccc(Br)cc1F)N1CCN(c2cnccn2)CC1` are 251 nM and 2510 nM.
As to `N#Cc1cccc(NC(=O)CNc2ccccc2C(=O)NC2CC2)c1`, the IC50 runs as follows: (restricted media, 72 h) 39.8 nM; (standard media with serum) 398 nM.
The corresponding values for `COc1ccc2oc(C(=O)NC3CCC(Oc4ncccn4)CC3)cc2c1` (stereo unspecified) are 126 nM and 1260 nM.
The corresponding values for `COc1ccc(-c2ccc(CNC(=O)c3cc(C(=O)NC(C)C)ccc3Cl)cc2)cn1` are 63.1 nM and 631 nM.
On the same counts, the results for `O=C(/C=C/c1n[nH]c2ccccc12)N1CCN(c2cnccn2)CC1` are 158 nM and 2000 nM.
Take `O=C(CCN=C1NS(=O)(=O)c2ccccc21)Nc1ccc(S(=O)(=O)N2CCCC2)cc1`: the 50% inhibitory concentration (IC50) was 794 nM (restricted media, 72 h) and 7940 nM (standard media with serum).
The corresponding values for `O=C(Nc1nnc(-c2ccccc2)s1)N1CCCN(c2ncccn2)CC1` are 20 nM and 200 nM.
For `CCCOc1cncc(S(=O)(=O)c2ccc3c(c2)CCN(C2CCC2)CC3)c1`, the half-maximal inhibitory concentration (IC50) is, setting by setting: (restricted media, 72 h) 316 nM; (standard media with serum) 3980 nM.
On the same counts, the results for `Cc1cccc(-c2nn(Cc3ccc(C(=O)NCCCO)cc3)c(=O)cc2N2CCCC(CO)C2)c1` (stereo unspecified) are 794 nM and 7940 nM.
Regarding `Cn1cccc1C1CCCN1CC(=O)Nc1ccc(S(=O)(=O)N2CCOCC2)cc1` (stereo unspecified), the IC50 is, setting by setting: (restricted media, 72 h) 794 nM; (standard media with serum) 10000 nM.
On to `O=C(CCCc1ncc(-c2ccccc2)o1)N1CCOC2CCCC21` (stereo unspecified), for which the IC50 reads like this: (restricted media, 72 h) 158 nM; (standard media with serum) 2000 nM.
On the same counts, the results for `O=C(CCn1nnc2cc(S(=O)(=O)N3CCCC3)ccc21)N1CCN(c2ccccn2)CC1` are 126 nM and 1260 nM.
The corresponding values for `N#Cc1c(N)n[nH]c1CCCNC(=O)c1ccc(Cl)c(S(=O)(=O)N2CCCC2)c1` are 50.1 nM and 631 nM.
As for `CC(C)Oc1ccc(-c2nnc(Oc3cccc4c3CCN(CCC(N)=O)CC4)s2)cc1C#N`, the IC50 was 501 nM (restricted media, 72 h) and 10000 nM (standard media with serum).
With `O=C(Nc1cccnc1)C1CCN(c2ccc(-c3ccco3)nn2)CC1`, the IC50 reads like this: (restricted media, 72 h) 794 nM; (standard media with serum) 7940 nM.
On the same counts, the results for `O=C1CCCN1c1ccc(S(=O)(=O)N2CCN(S(=O)(=O)c3ccccc3)CC2)cc1` are 501 nM and more than 50100 nM.
As to `COc1ccc(NC(=O)c2ccc3c(=O)n(Cc4ccccn4)cnc3c2)cc1N1CCN(C)CC1`, the IC50 was 398 nM (restricted media, 72 h) and 3980 nM (standard media with serum).
On the same counts, the results for `O=C(NCCCN1CCc2ccccc21)c1ccc2c(=O)n(Cc3ccccn3)cnc2c1` are 63.1 nM and 794 nM.
Take `Cc1cc(-c2cnc(N3CCn4c(nnc4C4CC4)C3)nc2-c2ccncc2)on1`: the IC50 reads like this: (restricted media, 72 h) 100 nM; (standard media with serum) 1580 nM.
The corresponding values for `CCN(C(=O)C=Cc1ccc(S(=O)(=O)N2CCc3ccccc32)cc1)C1CCS(=O)(=O)C1` (stereo unspecified) are 200 nM and 2510 nM.
`NC(=O)CC1CCN(C(=O)c2sc3sccc3c2Cl)CC1`: the IC50 runs as follows: (restricted media, 72 h) 316 nM; (standard media with serum) 3160 nM.
`CCN(CC)c1ccc(C(=O)COc2ccc3c(c2)CCNCC3)cc1`: the half-inhibitory concentration (IC50) (restricted media, 72 h) was 63.1 nM and the IC50 (standard media with serum) was determined as 1000 nM.

For the origin of these results see PubChem BioAssay AID2060598 (Global Health Medicines R&D, GSK, 2025).
